Laboratory results taken from US8410153B2, “Naphthalene isoxazoline invertebrate pest control agents” (E.I. du Pont de Nemours and Company, priority 2007, dated 2013).

Columns and labels:
Type in all cases: in vivo
[1] = test system: diamondback moth (Plutella xylostella); assay: Test A: control of diamondback moth on radish plant, foliar spray; conditions: sprayed at 50 ppm, held 6 days
Outline: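 Radish plants 12–14 days old, pre-infested with about 50 neonate larvae, sprayed at 50 ppm in 10% acetone/water with 300 ppm X-77 surfactant; three replicates. After 6 days at 25° C and 70% RH, feeding damage was scored visually and mortality counted.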

[2] = test system: western flower thrips (Frankliniella occidentalis); assay: Test E: control of western flower thrips on Soleil bean plant, contact and/or systemic; conditions: held 6 days
Outline: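 5–7-day-old Soleil bean plants were sprayed at 250 or 50 ppm in 10% acetone/90% water with 300 ppm X-77 surfactant, three replicates. After drying 1 h, 22–27 adult thrips were added per unit. Mortality and plant damage were rated after 6 days at 25 °C and 45–55% RH.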

[3] = test system: fall armyworm (Spodoptera frugiperda); assay: Test B: control of fall armyworm on corn (maize) plant, foliar spray; conditions: sprayed at 50 ppm
Procedure: Test compounds were formulated using a solution containing 10% acetone, 90% water and 300 ppm X-77™ Spreader Lo-Foam Formula non-ionic surfactant containing alkylarylpolyoxyethylene, free fatty acids, glycols and isopropanol (Loveland Industries, Inc. Greeley, Colo., USA). The formulated compounds were applied in 1 mL of liquid through a SUJ2 atomizer nozzle with ⅛ JJ custom body (Spraying Systems Co. Wheaton, Ill., USA) positioned 1.27 cm (0.5 inches) above the top of each test unit. All experimental compounds in these tests were sprayed at 50 ppm, and the test was replicated three times. After spraying of the formulated test compound, each test unit was allowed to dry for 1 h and then a black, screened cap was placed on top. The test units were held for 6 days in a growth chamber at 25° C. and 70% relative humidity. Plant feeding damage was then visually assessed based on foliage consumed, and a pest mortality rating was also counted and calculated for each test unit.
For evaluating control of fall armyworm (Spodoptera frugiperda) the test unit consisted of a small open container with a 4-5-day-old corn (maize) plant inside. This was pre-infested (using a core sampler) with 10-15 1-day-old larvae on a piece of insect diet. Test compounds were formulated and sprayed at 50 ppm as described for Test A and replicated three times. After spraying, the test units were maintained in a growth chamber and then the control efficacy was rated for each test unit as described for Test A.

Measured: levels of control efficacy (20% or less feeding damage or 80% or more mortality)

CCNC(=O)CNC(=O)c1ccc(C2=NOC(c3cc(Cl)cc(C(F)(F)F)c3)(C(F)(F)F)C2)c2ccccc12 (centres unmarked) [Compound 119]
very good to excellent: [1] | [2]; sprayed at 50 ppm | [2]; sprayed at 250 ppm | [3]

CC(C)(O)CNC(=O)c1ccc(C2=NOC(c3cccc(C(F)(F)F)c3)(C(F)(F)F)C2)c2ccccc12 (racemic) [Compound 43]
very good to excellent: [1] | [2]; sprayed at 250 ppm | [3]

CSCC(C)NC(=O)c1ccc(C2=NOC(c3cc(Cl)cc(Cl)c3)(C(F)(F)F)C2)c2ccccc12 (centres unmarked) [Compound 30]
very good to excellent: [1] | [2]; sprayed at 250 ppm | [3]

CS(=O)(=O)CCNC(=O)c1ccc(C2=NOC(c3cccc(C(F)(F)F)c3)(C(F)(F)F)C2)c2ccccc12 (racemic) [Compound 39]
very good to excellent: [1] | [2]; sprayed at 50 ppm | [2]; sprayed at 250 ppm | [3]

CC(C)NC(=O)CNC(=O)c1ccc(C2=NOC(c3cc(Cl)cc(C(F)(F)F)c3)(C(F)(F)F)C2)c2ccccc12 (centres unmarked) [Compound 63]
very good to excellent: [1] | [2]; sprayed at 50 ppm | [2]; sprayed at 250 ppm | [3]

CSCC(C)NC(=O)c1ccc(C2=NOC(c3cc(C(F)(F)F)cc(C(F)(F)F)c3)(C(F)(F)F)C2)c2ccccc12 (mixture of isomers) [Compound 60]
very good to excellent: [1] | [2]; sprayed at 250 ppm | [3]

CC(C)NC(=O)C(C)NC(=O)c1ccc(C2=NOC(c3cc(C(F)(F)F)cc(C(F)(F)F)c3)(C(F)(F)F)C2)c2ccccc12 (centres unmarked) [Compound 87]
very good to excellent: [1] | [2]; sprayed at 250 ppm | [3]

CC(C)NC(=O)CNC(=O)c1ccc(C2=NOC(c3cc(C(F)(F)F)cc(C(F)(F)F)c3)(C(F)(F)F)C2)c2ccccc12 (racemic) [Compound 40]
very good to excellent: [1] | [2]; sprayed at 50 ppm | [2]; sprayed at 250 ppm | [3]

CSCC(C)NC(=O)c1ccc(C2=NOC(c3cc(C(F)(F)F)cc(C(F)(F)F)c3)(C(F)(F)F)C2)c2ccccc12 (mixture of isomers) [Compound 59]
very good to excellent: [1] | [2]; sprayed at 50 ppm | [2]; sprayed at 250 ppm | [3]

CC(NC(=O)c1ccc(C2=NOC(c3cc(F)cc(C(F)(F)F)c3)(C(F)(F)F)C2)c2ccccc12)C(=O)NCC(F)(F)F (mixture of isomers) [Compound 139]
very good to excellent: [1] | [2]; sprayed at 50 ppm | [3]

CS(=O)(=O)CCNC(=O)c1ccc(C2=NOC(c3cc(C(F)(F)F)cc(C(F)(F)F)c3)(C(F)(F)F)C2)c2ccccc12 (racemic) [Compound 49]
very good to excellent: [1] | [2]; sprayed at 50 ppm | [2]; sprayed at 250 ppm | [3]

CCSCCNC(=O)c1ccc(C2=NOC(c3cccc(C(F)(F)F)c3)(C(F)(F)F)C2)c2ccccc12 (racemic) [Compound 51]
very good to excellent: [1] | [2]; sprayed at 50 ppm | [2]; sprayed at 250 ppm | [3]

CNC(=O)CNC(=O)c1ccc(C2=NOC(c3cc(C(F)(F)F)cc(C(F)(F)F)c3)(C(F)(F)F)C2)c2ccccc12 (centres unmarked) [Compound 105]
very good to excellent: [1] | [2]; sprayed at 50 ppm | [3]

CC(NC(=O)c1ccc(C2=NOC(c3cc(C(F)(F)F)cc(C(F)(F)F)c3)(C(F)(F)F)C2)c2ccccc12)C(=O)NC(C)C(F)(F)F (centres unmarked) [Compound 121]
very good to excellent: [1] | [2]; sprayed at 250 ppm | [3]

CC(C)CNC(=O)C(C)NC(=O)c1ccc(C2=NOC(c3cc(C(F)(F)F)cc(C(F)(F)F)c3)(C(F)(F)F)C2)c2ccccc12 (mixture of isomers) [Compound 93]
very good to excellent: [1] | [2]; sprayed at 50 ppm | [3]

C[S+]([O-])CCNC(=O)c1ccc(C2=NOC(c3cc(F)cc(C(F)(F)F)c3)(C(F)(F)F)C2)c2ccccc12 (mixture of isomers) [Compound 133]
very good to excellent: [1] | [2]; sprayed at 50 ppm | [2]; sprayed at 250 ppm | [3]
